From patent publication EP2765189A1, “Recombinant DNA constructs and methods for controlling gene expression” (Monsanto Technology LLC, priority 2004, dated 2006)
Where two headings read alike, the source gives them in different places.

Assays:
CP4 = CP4 expression in stably transformed maize callus carrying a theophylline "off" "trans" riboswitch; format: cell-based; details: transformed cells treated with theophylline
Source text: "trans" riboswitches, similarly to the "cis" riboswitches described in Examples […], are useful in regulating transgenes. In a specific example, a transgenic plant including a "trans" riboswitch designed to regulate the glyphosate-resistance transgene CP4 as the target sequence is particularly useful in "trans" riboswitch-controlled applications parallel to that described in Example 23 (glyphosate as a ligand for ligand-activated herbicide resistance, or for control of herbicide resistant volunteers) and Example 24 (glyphosate as a chemical hybridization agent). To illustrate this approach, CP4 expression is suppressed in stably transformed maize callus. A modified transcribable DNA encoding an "off' "trans" riboswitch with theophylline as its ligand (Bayer and Smolke (2005) Nature Biotechnol., 23:337-343) is designed to target CP4 as a target sequence. Transcription of the theophylline riboswitch can be driven either by a pol II promoter (e. g., Figure 27A) or by pol III promoter (e. g., Figure 27B). The transcribable DNA is inserted into a binary vector (Figure 30) and co-transformed into maize callus under nptIII selection, generating stably transformed maize callus lines. CP4 expression is assayed in the transformed cells, where CP4 expression is observed to be suppressed in transformed cells that are treated with theophylline.

LKR/SDH = LKR/SDH expression in transformed maize cells carrying a theophylline "off" "trans" riboswitch; format: cell-based; details: transformed cells treated with theophylline
Procedure: Similarly, a "trans" riboswitch is used to control expression of an endogenous target sequence (lysine ketoglutarate reductase/saccharopine dehydrogenase gene, LKR/SDH) in stably transformed maize plants. A modified transcribable DNA encoding an "off' "trans" riboswitch with theophylline as its ligand (Bayer and Smolke (2005) Nature Biotechnol., 23:337-343) is designed to target at least one region of the LKR/SDH sequence, and co-transformed into maize callus. LKR/SDH expression is assayed in the resulting transformed cells, where LKR/SDH expression is observed to be suppressed in transformed cells that are treated with theophylline.

[1] = target: bacterial lysine riboswitches; details: in vitro, Sudarsan et al. (2003), cited from earlier work

Row | SMILES | CP4 expression (CP4) | LKR/SDH expression (LKR/SDH) | Kd ([1]; read-out: Kd) | Kd ([1]; same value given in ppm)
1 | Cn1c(=O)c2[nH]cnc2n(C)c1=O [theophylline] | suppressed | suppressed | – | –
2 | NCCCC[C@H](N)C(=O)O [lysine] | – | – | ~1 mM | ~128 ppm
